Values of other authors as cited in patent US11670410B1, “Systems and methods to automatically administer a psychoactive substance to an airway of a user based on a detected event or condition” (priority 2022, dated 2023).

Experiments:
[1] = nose-to-brain device, protocol dose 1 mg
[2] = galantamine consumed orally
[3] = @ 5 min., protocol dose 1.0 mg
[4] = inhaled after vaporization; protocol dose 10 mcg/Kg

COc1ccc2c3c1O[C@H]1C[C@@H](O)C=C[C@@]31CCN(C)C2 [Galantamine, galantamine]
PK-Intranasal Tmax [1]: 30 to 45 min | Tmax [2]: ~1.5 h

CC[C@H](C)[C@@H]1NC(=O)[C@H](Cc2ccc(O)cc2)NC(=O)[C@@H](N)CSSC[C@@H](C(=O)N2CCC[C@H]2C(=O)N[C@@H](CC(C)C)C(=O)NCC(N)=O)NC(=O)[C@H](CC(N)=O)NC(=O)[C@H](CCC(N)=O)NC1=O [Oxytocin, oxytocin]
PK-Intranasal olfactory bulb concentration [3]: > 0 @ 5 min.

COC(=O)[C@@H]1C[C@H](OC(C)=O)C(=O)[C@H]2[C@@]1(C)CC[C@H]1C(=O)O[C@H](c3ccoc3)C[C@]21C [Salvinorin A, salvinorin A]
PK-Inhaled Tmax [4]: Tmax = 2 min.
